According to patent publication US4418068A, “Antiestrogenic and antiandrugenic benzothiophenes” (Eli Lilly and Company, priority 1981, dated 1983):

Legend:
estrogenic response [1] = experiment: Estrogenic Response Test, mature ovariectomized mice (uterine weight); assay type: in vivo, adult ovariectomized mice; settings: Experiment E, s.c.
Protocol: (§1) The first test reported below is used to determine the estrogenic potency of compounds. It is well known that many compounds having antiestrogenic activity also, typically, have estrogenic activity. As has been explained, estrogenic activity is a liability in an antiestrogen, and thus it is important to identify antiestrogens having a minimum amount of estrogenic activity. This test was conducted with immature 40-45 g. female rats, immature 11-13 g. mice, and adult ovariectomized mice. The rats were tested in groups of six, and mice in groups of ten. All of the laboratory animals were from standardized strains and were equilibrated to the laboratory before the test started. Each test was begun by administering the test compound daily for three days, as a subcutaneous injection or by oral gavage, as indicated below in the reports of individual experiments. Untreated control animals were included in each experiment, along with animals to which estradiol was administered subcutaneously. The estradiol-treated animals provided positive controls, showing the physiological effect of a potent estrogen on the individual group of animals used in the experiment. […] The test animals were treated for three days and sacrificed on the fourth day, and the uteri were removed, freed of extraneous tissue, and blotted with paper towels. The uteri were weighed to the nearest 0.1 mg. The tables below report the results of representative experiments. The doses of estradiol and of the compound of this invention are given as the total of the three daily doses. The uterine weights are given, in mg., as the means of all of the organ weights of the animals in a group. Compounds are referred to by their example numbers above.

estrogenic response [2] = experiment: Estrogenic Response Test, immature rats (uterine weight); assay type: in vivo, immature 40-45 g. female rats
Protocol: as §1

estrogenic response [3] = experiment: Estrogenic Response Test, immature mice (uterine weight); assay type: in vivo, immature 11-13 g. mice; settings: Experiment D, s.c.
Protocol: as §1

[4] = system: androgen-stimulated prostate growth; experiment: Anti-Androgen Test, adult castrated male rats (ventral prostate weight); assay type: in vivo; settings: for Mean Prostate Weight: Experiment A
Protocol: The antiandrogenic property of the compounds was evaluated in the following tests, in which the compound of Example 3 was used again.
The animals used in this test were adult male rats having a body weight which averaged about 330 g. when the experiment ended. All of the animals to be used in the experiment were castrated by the scrotal route, and were held untreated for 3 days. On the fourth day, subcutaneous administration of 0.1 mg./day of an exogenous androgen, testosterone propionate, was begun, and was continued for seven consecutive days. An untreated control group of animals received injections of 0.1 ml./day of corn oil as a blank treatment. The compound of this invention was administered orally or subcutaneously to the treated animals in 0.1 ml. of corn oil, at the same time that the androgen was administered. The animals were sacrificed 24 hours after the last injection of testosterone propionate, the ventral prostate glands were removed and weighed, and the mean of the weights of each treatment group was reported. The table below reports the mean weights resulting from administration of various doses of the compound along with androgen.
Each treatment group of animals in this experiment consisted of seven to nine animals, except for the untreated control group, which contained twelve animals.

[5] = system: estrogenic response of estradiol; experiment: Antiestrogenic Test, mature ovariectomized mice (uterine weight); assay type: in vivo, adult ovariectomized mice; settings: Experiment A, s.c. + estradiol 0.3 mcg.
Protocol: (§2) This test was conducted with immature 40-45 g. female rats, immature 11-13 g. mice, and adult ovariectomized mice. The rats were tested in groups of six, and mice in groups of ten. All of the laboratory animals were from standardized strains and were equilibrated to the laboratory before the test started. Each test was begun by administering the test compound daily for three days, as a subcutaneous injection or by oral gavage, as indicated below in the reports of individual experiments.
(§3) The test animals were treated for three days and sacrificed on the fourth day, and the uteri were removed, freed of extraneous tissue, and blotted with paper towels. The uteri were weighed to the nearest 0.1 mg.
(§4) The uterine weights are given, in mg., as the means of all of the organ weights of the animals in a group. Compounds are referred to by their example numbers above.
(§5) The same standardized types of laboratory animals which were used in the experiments described above were also used in these experiments. […] Untreated control animals were used in each experiment. […] The dosage and sacrifice schedule, and the method of determining uterine weights and reporting data, were the same as the methods described above under Test 1.

[6] = system: estrogenic response of estradiol; experiment: Antiestrogenic Test, immature rats (uterine weight); assay type: in vivo
Protocol: as §2, §3, §4, §5

O=C(c1ccc(OCCN2CCCCC2)cc1)c1c(-c2ccc(O)cc2)sc2cc(O)ccc12 [Example 3, 6-hydroxy-2-(4-hydroxyphenyl)-3-[4-(2-piperidinoethoxy)benzoyl]benzo[b]thiophene]
Uterine weight (estrogenic response [1]; total dose 3 mg.): 23.1 mg | Uterine weight (estrogenic response [1]; total dose 0.3 mcg.): 18.2 mg | Uterine weight (estrogenic response [1]; total dose 3 mcg.): 25.6 mg | Uterine weight (estrogenic response [1]; total dose 30 mcg.): 26.2 mg | Uterine weight (estrogenic response [1]; total dose 300 mcg.): 24.8 mg | Uterine weight (estrogenic response [2]; Experiment A, total dose 3 mg., s.c.): 33.9 mg | Uterine weight (estrogenic response [2]; Experiment A, total dose 3 mcg., s.c.): 47.7 mg | Uterine weight (estrogenic response [2]; Experiment A, total dose 30 mcg., s.c.): 38.4 mg | Uterine weight (estrogenic response [2]; Experiment A, total dose 300 mcg., s.c.): 35.9 mg | Uterine weight (estrogenic response [2]; Experiment B, total dose 3 mcg., oral (first line)): 34.5 mg | Uterine weight (estrogenic response [2]; Experiment B, total dose 30 mcg., oral): 34.4 mg | Uterine weight (estrogenic response [2]; Experiment B, total dose 300 mcg., oral): 33.2 mg | Uterine weight (estrogenic response [2]; Experiment B, total dose printed 3 mcg., oral (last line)): 34.4 mg | Uterine weight (estrogenic response [3]; total dose 3 mg.): 14.6 mg | Uterine weight (estrogenic response [3]; total dose 0.03 mcg.): 19.0 mg | Uterine weight (estrogenic response [3]; total dose 0.3 mcg.): 19.3 mg | Uterine weight (estrogenic response [3]; total dose 3 mcg.): 22.9 mg | Uterine weight (estrogenic response [3]; total dose 30 mcg.): 23.9 mg | Uterine weight (estrogenic response [3]; total dose 300 mcg.): 19.3 mg | Mean Prostate Weight ([4]; 0.01 mg./day, S.C. + testosterone propionate 0.1 mg./day): 253 mg | Mean Prostate Weight ([4]; 0.01 mg./day, oral + testosterone propionate 0.1 mg./day): 192 mg | Mean Prostate Weight ([4]; 0.1 mg./day, S.C. + testosterone propionate 0.1 mg./day): 235 mg | Mean Prostate Weight ([4]; 0.1 mg./day, oral + testosterone propionate 0.1 mg./day): 267 mg | Mean Prostate Weight ([4]; 1 mg./day, S.C. + testosterone propionate 0.1 mg./day): 201 mg | Mean Prostate Weight ([4]; 1 mg./day, oral + testosterone propionate 0.1 mg./day): 242 mg | effect on androgen-stimulated prostate growth ([4]; conclusion in words, Experiments A-C): inhibited a large part of the abnormal prostate growth | Uterine weight ([5]; 3 mg.): 21.3 mg | Uterine weight ([5]; 0.3 mcg.): 54.9 mg | Uterine weight ([5]; 3 mcg.): 48.7 mg | Uterine weight ([5]; 30 mcg.): 31.1 mg | Uterine weight ([5]; 300 mcg.): 22.1 mg | Uterine weight ([6]; Experiment C, 3 mg., oral + estradiol 0.3 mcg., s.c.): 30.6 mg | Uterine weight ([6]; Experiment C, 3 mcg., oral + estradiol 0.3 mcg., s.c.): 55.0 mg | Uterine weight ([6]; Experiment C, 30 mcg., oral + estradiol 0.3 mcg., s.c.): 46.7 mg | Uterine weight ([6]; Experiment C, 300 mcg., oral + estradiol 0.3 mcg., s.c.): 31.3 mg | Uterine weight ([6]; Experiment D, 3 mg., s.c. + estradiol 0.3 mcg.): 28.0 mg | Uterine weight ([6]; Experiment D, 3 mcg., s.c. + estradiol 0.3 mcg.): 53.6 mg | Uterine weight ([6]; Experiment D, 30 mcg., s.c. + estradiol 0.3 mcg.): 33.7 mg | Uterine weight ([6]; Experiment D, 300 mcg., s.c. + estradiol 0.3 mcg.): 30.7 mg | Uterine weight ([6]; Experiment E, 3 mg., s.c. + estradiol 0.09 mcg.): 31.0 mg | Uterine weight ([6]; Experiment E, 3 mcg., s.c. + estradiol 0.09 mcg.): 42.5 mg | Uterine weight ([6]; Experiment E, 30 mcg., s.c. + estradiol 0.09 mcg.): 35.8 mg | Uterine weight ([6]; Experiment E, 300 mcg., s.c. + estradiol 0.09 mcg.): 33.7 mg | Uterine weight ([6]; Experiment F, 3 mg., s.c. + estradiol 0.15 mcg.): 36.2 mg | Uterine weight ([6]; Experiment F, 3 mcg., s.c. + estradiol 0.15 mcg.): 49.4 mg | Uterine weight ([6]; Experiment F, 30 mcg., s.c. + estradiol 0.15 mcg.): 40.9 mg | Uterine weight ([6]; Experiment F, 300 mcg., s.c. + estradiol 0.15 mcg.): 36.5 mg | Uterine weight ([6]; Experiment G, 3 mg., s.c. + estradiol 3 mcg.): 30.2 mg | Uterine weight ([6]; Experiment G, 3 mcg., s.c. + estradiol 3 mcg.): 71.9 mg | Uterine weight ([6]; Experiment G, 30 mcg., s.c. + estradiol 3 mcg.): 42.2 mg | Uterine weight ([6]; Experiment G, 300 mcg., s.c. + estradiol 3 mcg.): 33.7 mg | Uterine weight ([6]; Experiment H, 3 mg., s.c. + estradiol 30 mcg.): 33.1 mg | Uterine weight ([6]; Experiment H, 3 mcg., s.c. + estradiol 30 mcg.): 92.7 mg | Uterine weight ([6]; Experiment H, 30 mcg., s.c. + estradiol 30 mcg.): 60.2 mg | Uterine weight ([6]; Experiment H, 300 mcg., s.c. + estradiol 30 mcg.): 48.9 mg
